Drawing on ChEMBL document CHEMBL1130201, “Antimalarial activity of molecules interfering with Plasmodium falciparum phospholipid metabolism. Structure-activity relationship analysis” (J Med Chem, 1997), this text covers IC50 for 76 compounds.

The IC50 is the point on the concentration scale where inhibition reaches its midpoint.

One test concerns Plasmodium falciparum. As to the kind of experiment: Inhibitory activity against Plasmodium falciparum. Type of test: functional, organism-based.
Conditions: not given
In turn, CETRIMIDE showed a concentration for half-maximal inhibition (IC50) of 0.9 µM. This lies in the sub-micromolar range.

Staying with this test, now noted: Plasmodium falciparum.
Turning to `CC(O)CN` (stereo unspecified), half-maximal inhibition (IC50) required 800 µM.

Turning to `C[N+](C)(C)CCOP(=O)([O-])O`, inhibition was half-maximal at 1200 µM (IC50).

`C[N+](C)(C)CCCCCCCCCC[N+](C)(C)C` [DECAMETHONIUM BROMIDE] registered an IC50 of 1.7 µM.

In turn, `CCCCCCCCCCCC[N+](CCC)(CCC)CCC` returned an IC50 of 0.033 µM.

In turn, `C[N+](C)(C)C1CCCCC1O` (stereo unspecified) returned an IC50 of 700 µM.

The compound `CCCCCCCCCCCCN(C)CCO` returned a concentration for half-maximal inhibition (IC50) of 1.3 µM.

Turning to `CCCCCCCCCCCC[N+](C)(C)CCC`, the half-inhibitory concentration (IC50) was 0.15 µM.

Take `CCCCCCCCCCCCNCCO`: the IC50 came out at 0.51 µM.

`OCCN1CC1` yielded an IC50 of 50 µM.

`CCC(N)(CO)CO` returned an IC50 of 600 µM.

The compound `CCCCCCCCCCCCCCCCCC[N+](CC)(CC)CCO` returned an IC50 of 0.62 µM.

With `CC[N+](CC)(CC)CC` [TETRYLAMMONIUM BROMIDE], the half-inhibitory concentration (IC50) turned out to be 700 µM. This IC50 is about 1100-fold higher than that of the compound before.

Take `CC(Cc1ccccc1)[N+](C)(C)CCO` (stereo unspecified): the IC50 was found to be 250 µM.

Regarding `OCCNCCO` [DIETHANOLAMINE], the 50% inhibitory concentration (IC50) worked out at 1100 µM.

For the compound `OCCN1CCN(CCO)CC1`, it took 1200 µM to reach half-maximal inhibition (IC50).

Compound `OCCN1CCCC1` yielded a 50% inhibitory concentration (IC50) of 420 µM.

`CC(=O)OCC[N+](C)(C)C` [ACETYLCHOLINE CHLORIDE] yielded an IC50 of more than 8000 µM.

In turn, `C[N+]1(CCCCC[N+]2(C)CCCC2)CCCC1` yielded an IC50 of 650 µM.

`CCCCCCCCCCCC[N+](CC)(CC)CCO` yielded a 50% inhibitory concentration (IC50) of 0.34 µM. Compared with the last compound, the IC50 is about 1900-fold lower.

`CCCCCCCCCCCCCC[N+](C)(C)CCO` showed an IC50 of 0.6 µM.

Take `NCCS` [CYSTEAMINE]: inhibition was half-maximal at 200 µM (IC50).

Compound `CCCCCCCCCCCC[N+](C)(C)C` gave an IC50 of 0.5 µM. This IC50 is about 400-fold lower than that of the compound before.

`NCCCCCO`: the concentration for half-maximal inhibition (IC50) was more than 2000 µM.

Compound `C[N+]1(CCO)CCCC1` returned an IC50 of 230 µM.

Regarding `CCCCCCCCCCCC[N+](CC)(CCO)CCCCCCCCCCCC`, inhibition was half-maximal at 1.5 µM (IC50).

With `CCCCCCC[N+](C)(C)C`, the IC50 was 300 µM.

The compound `CC[N+](CC)(CCO)CCCCCCCCCC[N+](CC)(CC)CCO` came in with a concentration for half-maximal inhibition (IC50) of 2 µM.

Take `CC(C)(N)CO` [DEANOL]: inhibition was half-maximal at 900 µM (IC50).

Consider `C[N+]1(CCO)CCOCC1`, for which the concentration for half-maximal inhibition (IC50) turned out to be 4830 µM. This IC50 lies about 5.4-fold higher than the previous one.

For `CCC(N)CO` (stereo unspecified), it took 80 µM to reach half-maximal inhibition (IC50). Against the preceding compound, the IC50 is about 60-fold lower.

With `CCCCCCCCCCCCNCCOC`, it took 2.1 µM to reach half-maximal inhibition (IC50).

For the compound `CCCCCCCCCC[N+](C)(C)C`, half-maximal inhibition (IC50) required 0.7 µM.

`CCCCCCCCCCCC[N+](C)(C)CCBr` displayed an IC50 of 0.21 µM. Against the preceding compound, the IC50 is about 3.3-fold lower.

`CC[N+](C)(C)CCO`: the IC50 was more than 300 µM.

In turn, `CCCCCCCCCCC[N+](C)(C)C` gave an IC50 of 0.5 µM. In other words, the sub-micromolar range.

In turn, `CN(C)CCO` [DIMETHYLAMINOETHANOL] yielded an IC50 of 1300 µM.

`C[N+](C)(C)CCCl` [CHLORMEQUAT CHLORIDE] gave an IC50 of 200 µM. This IC50 lies about 6.5-fold lower than the previous one.

With `NCCCCCN`, inhibition was half-maximal at 2000 µM (IC50).

The compound `CCCCCCCCCCCCCCCCCC[N+](C)(C)CCO` registered an IC50 of 1.3 µM.

As for `C[N+](C)(CCO)CCc1ccccc1`, the 50% inhibitory concentration (IC50) was 110 µM.

`OC1CCCNC1` (stereo unspecified) showed a half-maximal inhibitory concentration (IC50) of more than 1000 µM.

For the compound `C[Se+](C)CCO`, 420 µM corresponded to half-maximal inhibition (IC50).

The compound `CC(C)(C)CCO` yielded an IC50 of more than 2000 µM.

In the case of `CCCCCCCCCC[N+](C)(C)CCO`, half-maximal inhibition (IC50) was put at 0.97 µM. That is a sub-micromolar value.

Regarding `CCCCCCCCCCCC[N+](C)(C)CC`, half-maximal inhibition (IC50) required 0.11 µM. This IC50 is about 8.8-fold lower than that of the compound before.

Turning to `CCCCCCCCCCCC[N+](C)(C)CCCCCCCCCCCC`, it took 0.7 µM to reach half-maximal inhibition (IC50).

For `C[N+](C)(CCO)Cc1ccccc1`, 112 µM corresponded to half-maximal inhibition (IC50).

With `CCCCCCCCCCCCCC[N+](CC)(CC)CCO`, the IC50 was determined as 0.55 µM.

`CCCCCCCCCCCCCC[N+](C)(C)Cc1ccccc1` [MIRISTALKONIUM CHLORIDE] returned a half-inhibitory concentration (IC50) of 1 µM. Compared with the last compound, the IC50 is about 1.8-fold higher.

In the case of `CCN(CC)CCO` [DIETHYLAMINOETHANOL], inhibition was half-maximal at 400 µM (IC50).

`C[N+](C)(CCO)C1CCCCC1`: the IC50 was 120 µM.

On to `C[C@H]1O[C@@H](C[N+](C)(C)C)C[C@@H]1O`, for which the half-inhibitory concentration (IC50) was more than 200 µM.

`CCCCCCCCCCCC[N+](C)(CCO)CCCCCCCCCCCC` gave an IC50 of 0.84 µM.

`CCCCCCCCCCCCNC(CC)CO` (stereo unspecified) gave an IC50 of 0.61 µM. This IC50 and that of the compound before are within 1.5-fold of each other.

`CCCCCCCCC[N+](C)(C)C` showed an IC50 of 1.6 µM. Against the preceding compound, the IC50 is about 2.6-fold higher.

`C[N+](C)(C)CC(=O)O` [BETAINE] had a concentration for half-maximal inhibition (IC50) of more than 8000 µM.

Regarding `OCCNCc1ccccc1`, the concentration for half-maximal inhibition (IC50) was 40 µM. This counts as double-digit micromolar.

The compound `CCCCCCCCCCCCCCCCCC[N+](C)(C)Cc1ccccc1` registered an IC50 of 0.7 µM.

Compound `CN(C)CCOC(=O)COc1ccc(Cl)cc1` [MECLOFENOXATE] showed an IC50 of 500 µM.

The compound `CCCCCCCCCCCC[N+](C)(C)CCO` showed an IC50 of 0.48 µM.

Compound `CCCCCCCCCCCC[N+](C)(C)CCCC` showed an IC50 of 0.26 µM.

The compound `C[N+](C)(CCO)CC(=O)c1ccc(-c2ccc(C(=O)C[N+](C)(C)CCO)cc2)cc1` registered an IC50 of 4 µM.

Consider `CCCCCCCCCCCC[N+](CC)(CC)CC`, for which the IC50 is 0.064 µM.

`NCCCO` yielded a concentration for half-maximal inhibition (IC50) of 800 µM.

The compound `C[N+]1(CCCCCCCCCC[N+]2(C)CCCC2)CCCC1` came in with a half-inhibitory concentration (IC50) of 0.15 µM.

`NC(CO)CO` returned a half-inhibitory concentration (IC50) of 50 µM.

For the compound `OC1CCNC1` (stereo unspecified), the IC50 is more than 1000 µM.

Regarding `C[N+](C)(C)CCCCCCCCCCCC[N+](C)(C)C`, half-maximal inhibition (IC50) required 0.09 µM.

`CC[N+](CC)(CCO)CCCCC[N+](CC)(CC)CCO` returned a half-inhibitory concentration (IC50) of 1260 µM. This IC50 lies about 14000-fold higher than the previous one.

Compound `C[N+](C)(C)CCCCCC[N+](C)(C)C` [HEXAMETHONIUM BROMIDE] came in with a concentration for half-maximal inhibition (IC50) of 700 µM.

`CCCCCCCCCCCCCCCCCC[N+](C)(C)C` [TRIMETHYL-OCTADECYL-AMMONIUM CHLORIDE]: the concentration for half-maximal inhibition (IC50) was determined as 2.1 µM. Compared with the last compound, the IC50 is about 330-fold lower.

`CN(C)CCCCCCN(C)C`: the IC50 was 130 µM.

Regarding `CCCCC[N+](C)(C)CCO`, the IC50 was determined as 81.3 µM.

`OCCN1CCCCC1`: it took 350 µM to reach half-maximal inhibition (IC50).

Consider `CC(N)CO` (stereo unspecified), for which the IC50 is 300 µM.
